What all share (test): NCI-60 cell line screen, 48 h
Assay [1] deals with SF-539.
Assay [2] deals with NCI-H226.
In assay [3] the test system is UO-31.
For assay [4], the system named is SW-620.
Assay [5] deals with EKVX.
In assay [6] the test system is SF-268.
Assay [7] deals with KM-20L2.
The subject of assay [8] is CAKI-1.
Assay [9] concerns OVCAR-5.
Assay [10] concerns MOLT-4.
Assay [11] deals with SF-295.
The subject of assay [12] is NCI-H522.
The subject of assay [13] is ACHN.
For assay [14], the system named is UACC-257.
The subject of assay [15] is Malme-3M.
For assay [16], the system named is UACC-62.
The test system of assay [17] is A549.
For assay [18], the system named is LOX IMVI.

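Compound exposure: 48 hours, 5 concentrations, 96-well plates. At the GI50, growth is halved.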 Active and inactive are the calls of the source. Rule as the data show it: active = GI50 up to about 1.1 µM and inactive = higher.

As for `N#C/N=C(\N)NCCO`, the GI50 is > 100 µM (inactive) in assay [1]; > 100 µM (inactive) in [2]; > 100 µM (inactive) in [3]; 18.3 µM (inactive) in assay [4]; > 100 µM (inactive) in [5]; > 100 µM (inactive) in assay [6]. Besides, the GI50 in assay [7], in [8], in assay [9], in [10], in assay [11] and in assay [12] was > 100 µM (inactive) in each case. The GI50 in [13], in [14], in assay [15], in assay [16] and in assay [17] was > 100 µM (inactive) each time.
For `O=C1CCC(=O)C(C(=O)CCC(=O)Nc2ccc(Cl)cc2)C1` (stereo unspecified), the GI50 in assay [1], in [2], in [3], in assay [4], in assay [5] and in assay [6] was > 100 µM (inactive) each time. Besides, the GI50 in assay [7], in assay [8], in assay [9], in [10], in [11] and in assay [12] was > 100 µM (inactive) in each case. Further, the GI50 in [18], in assay [13], in assay [14], in assay [15], in assay [16] and in assay [17] was > 100 µM (inactive) throughout.
Take `Nc1ncnc2c(C3OC(CO)C(O)C3O)scc12` (stereo unspecified): the GI50 in assay [1] was 4.94 µM (inactive); in assay [2], 0.0386 µM (active); in assay [3] it was 0.57 µM (active); in assay [4], 0.0192 µM (active); in assay [5], 1.04 µM (active); in [6], 1.77 µM (inactive). Further, the GI50 in assay [7] is 0.00516 µM (active); in [8], < 0.01 µM (active); in [9], 0.0222 µM (active); in [10] it was 0.0767 µM (active); in assay [11], 0.129 µM (active); in [12] it was 0.0107 µM (active). The GI50 in [18] was 0.0566 µM (active); in assay [13], 0.0877 µM (active); in [14] it was 0.0792 µM (active); in [15], 2.54 µM (inactive); in assay [16], 0.00321 µM (active); in assay [17] it was 0.00721 µM (active).
`C/N=c1\ss/c(=N\C(=S)N(C)C)n1C1CCCCC1`: the GI50 is > 100 µM (inactive) in assay [1]; > 31.6 µM (inactive) in [2]; > 31.6 µM (inactive) in assay [3]; > 31.6 µM (inactive) in assay [4]; > 31.6 µM (inactive) in [5]; > 31.6 µM (inactive) in [6]. In addition, the GI50 in [7], in [8], in [9], in assay [10], in assay [11] and in [12] was > 31.6 µM (inactive) throughout. The GI50 in assay [18], in assay [13], in [14], in assay [15], in assay [16] and in assay [17] was > 31.6 µM (inactive) throughout.
Take `COc1ccc2c(c1)[n+]([O-])c(-c1ccc(C)cc1)c(N)[n+]2[O-]`: the GI50 in assay [1] was 86.1 µM (inactive); in assay [2], > 100 µM (inactive); in assay [3], 55.1 µM (inactive); in [4], 38.4 µM (inactive); in assay [5] it was 67.8 µM (inactive); in [7] it was 36.1 µM (inactive). Moreover, the GI50 in assay [8] is 49.2 µM (inactive); in [9], 66.5 µM (inactive); in [11] it was > 100 µM (inactive); in assay [12], 16.3 µM (inactive); in assay [13], 57.4 µM (inactive); in assay [14], 23.6 µM (inactive). Besides, the GI50 in assay [15] is 76.2 µM (inactive); in [17], 55.3 µM (inactive).
`O=[N+]([O-])c1ccc2nc(/C(=N\Nc3ccccc3)C(O)c3ccc4c(c3)OCO4)c(O)nc2c1` (stereo unspecified): the GI50 in assay [1] is > 100 µM (inactive); in assay [2], > 100 µM (inactive); in [3], 79.3 µM (inactive); in assay [4], 56.1 µM (inactive); in [5], > 100 µM (inactive); in [6], > 100 µM (inactive). Also, the GI50 in assay [7] is 67 µM (inactive); in [10], > 100 µM (inactive); in [11], > 100 µM (inactive); in assay [12] it was 39 µM (inactive); in assay [18], > 100 µM (inactive); in assay [13], 30.7 µM (inactive). Besides, the GI50 was > 100 µM (inactive) in [14], > 100 µM (inactive) in [15], 34 µM (inactive) in [16] and > 100 µM (inactive) in assay [17].
In the case of `CCOC(=O)c1nc2ccc([N+](=O)[O-])cc2c2c1CCO2`, the GI50 in assay [1], in [2], in assay [4], in assay [5], in assay [6] and in assay [7] was > 100 µM (inactive) each time. Also, the GI50 in assay [8] is > 100 µM (inactive); in assay [9], > 100 µM (inactive); in assay [10] it was > 100 µM (inactive); in assay [11] it was > 100 µM (inactive); in [12], 92.3 µM (inactive); in [18], > 100 µM (inactive). Further, the GI50 in assay [13], in assay [14], in assay [15], in assay [16] and in [17] was > 100 µM (inactive) each time.
Turning to `Oc1cc(Cl)ncn1`, the GI50 in [2], in [3], in assay [4], in assay [5], in assay [6] and in [7] was > 100 µM (inactive) throughout. Further, the GI50 in assay [8], in assay [9], in [10], in [11], in assay [12] and in assay [18] was > 100 µM (inactive) each time. For the same compound, the GI50 in assay [13], in assay [14], in assay [15], in assay [16] and in [17] was > 100 µM (inactive) each time.
For the compound `CC(C)CCS(=O)(=O)OCCCCOS(=O)(=O)CCC(C)C`, the GI50 in assay [1], in assay [2], in [3], in assay [4], in assay [5] and in [6] was > 100 µM (inactive) throughout. For the same compound, the GI50 in assay [7], in [10], in assay [11], in assay [12], in assay [18] and in [13] was > 100 µM (inactive) throughout. In addition, the GI50 in assay [14], in [15], in [16] and in assay [17] was > 100 µM (inactive) throughout.

(Values after ChEMBL document CHEMBL1201862, “PubChem BioAssay data set” (2004).)
